# Experimental data as given in patent US10035778B2, “Meta-azacyclic amino benzoic acid derivatives as pan integrin antagonists” (Saint Louis University, priority 2015, dated 2018).
# Key:
# Type in all cases: binding
# [1] = molecular target: Recombinant human integrin αvβ1 (Homo sapiens (Human), UniProt P05556+P06756); assay: Solid Phase Receptor Assay (SPRA) for αvβ1 function; details: fibronectin-coated plate
# Description: 2. Solid Phase Receptor Assay (SPRA) for αvβ1 Function
# Purified human fibronectin (R&D Systems, 1918-FN) diluted to 5 μg/mL in TBS+ buffer (25 mM Tris pH 7.4, 137 mM NaCl, 2.7 mM KCl, 1 mM CaCl2, 1 mM MgCl2, 1 mM MnCl2) was added to wells (50 μL/well) of a 96-well half-well transparent microtiter plate (Greiner 675061) and incubated overnight at 4° C. Wells were washed 3 times with 150 μL TBS+ and 150 μL of blocking buffer (TBS+ with 1% bovine serum albumin, Sigma A7906) were added. The plate was incubated for 1 hr at 37° C. and then washed 3× with TBS+ buffer. Recombinant human integrin αvβ1 (R&D Systems. 6579-AV) was diluted to 2.0 μg/mL in TBS+/0.1% bovine serum albumin. Compounds were diluted 1:100 into the integrin solution and 50 μL added to empty wells of the washed fibronectin-coated plate according to a standard template with each sample repeated in triplicate. After incubation for two hours at room temperature, the plate was washed 3× with 150 μL of TBS+ buffer. To each well, 50 μL of biotinylated anti-αv antibody (R&D Systems, BAF1219) at 1 μg/mL in TBS+/0.1% BSA were added and the plate covered and incubated for 1 hr at room temperature. After washing the plate 3× with 150 μL of TBS+ buffer, 50 μL of streptavidin-conjugated horseradish peroxidase (R&D Systems, DY998) diluted in TBS+ blocking buffer were added to the wells and the plate incubated for 20 min at room temperature. The plate was washed 3× with TBS+ buffer followed by 50 μL of TMB substrate (Sigma, T4444) added to each well and the plate incubated for 20 min at room temperature. Plates were read by colorimetric detection at 650 nm wavelength using a Tecan Safire II plate reader. Concentration-response curves were constructed by non-linear regression (best fit) analysis, and IC50 values were calculated for each compound.
# [2] = molecular target: Recombinant human integrin αvβ5 (Homo sapiens (Human), UniProt P06756+P18084); assay: Solid Phase Receptor Assay (SPRA) for αvβ5 function; details: vitronectin-coated plate
# Recombinant human integrin αvβ5, sequence (P06756 31-992): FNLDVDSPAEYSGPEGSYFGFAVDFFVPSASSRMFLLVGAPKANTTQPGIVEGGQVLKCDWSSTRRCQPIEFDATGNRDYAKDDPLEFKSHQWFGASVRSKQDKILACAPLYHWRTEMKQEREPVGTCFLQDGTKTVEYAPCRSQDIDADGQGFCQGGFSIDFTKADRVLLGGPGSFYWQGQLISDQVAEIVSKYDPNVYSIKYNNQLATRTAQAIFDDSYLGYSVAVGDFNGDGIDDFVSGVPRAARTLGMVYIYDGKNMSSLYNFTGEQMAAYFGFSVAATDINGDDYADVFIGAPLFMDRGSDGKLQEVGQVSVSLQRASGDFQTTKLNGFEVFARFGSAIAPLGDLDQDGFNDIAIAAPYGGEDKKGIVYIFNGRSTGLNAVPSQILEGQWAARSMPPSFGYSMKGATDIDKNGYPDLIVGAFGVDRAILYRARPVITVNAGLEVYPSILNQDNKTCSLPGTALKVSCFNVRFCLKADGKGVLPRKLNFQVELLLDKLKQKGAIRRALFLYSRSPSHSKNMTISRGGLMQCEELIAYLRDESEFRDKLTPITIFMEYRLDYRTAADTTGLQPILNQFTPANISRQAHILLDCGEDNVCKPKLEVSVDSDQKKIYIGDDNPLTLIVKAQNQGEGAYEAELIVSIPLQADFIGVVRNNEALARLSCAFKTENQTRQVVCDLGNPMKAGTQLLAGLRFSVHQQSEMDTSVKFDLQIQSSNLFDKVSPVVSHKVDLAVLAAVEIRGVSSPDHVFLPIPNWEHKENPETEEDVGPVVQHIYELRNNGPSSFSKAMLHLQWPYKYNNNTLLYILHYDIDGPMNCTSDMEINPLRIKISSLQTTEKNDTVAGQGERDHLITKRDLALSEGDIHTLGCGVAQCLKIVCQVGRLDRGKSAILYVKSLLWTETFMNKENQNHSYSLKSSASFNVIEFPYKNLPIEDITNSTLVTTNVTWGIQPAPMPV
# Recombinant human integrin αvβ5, sequence (P18084 24-719): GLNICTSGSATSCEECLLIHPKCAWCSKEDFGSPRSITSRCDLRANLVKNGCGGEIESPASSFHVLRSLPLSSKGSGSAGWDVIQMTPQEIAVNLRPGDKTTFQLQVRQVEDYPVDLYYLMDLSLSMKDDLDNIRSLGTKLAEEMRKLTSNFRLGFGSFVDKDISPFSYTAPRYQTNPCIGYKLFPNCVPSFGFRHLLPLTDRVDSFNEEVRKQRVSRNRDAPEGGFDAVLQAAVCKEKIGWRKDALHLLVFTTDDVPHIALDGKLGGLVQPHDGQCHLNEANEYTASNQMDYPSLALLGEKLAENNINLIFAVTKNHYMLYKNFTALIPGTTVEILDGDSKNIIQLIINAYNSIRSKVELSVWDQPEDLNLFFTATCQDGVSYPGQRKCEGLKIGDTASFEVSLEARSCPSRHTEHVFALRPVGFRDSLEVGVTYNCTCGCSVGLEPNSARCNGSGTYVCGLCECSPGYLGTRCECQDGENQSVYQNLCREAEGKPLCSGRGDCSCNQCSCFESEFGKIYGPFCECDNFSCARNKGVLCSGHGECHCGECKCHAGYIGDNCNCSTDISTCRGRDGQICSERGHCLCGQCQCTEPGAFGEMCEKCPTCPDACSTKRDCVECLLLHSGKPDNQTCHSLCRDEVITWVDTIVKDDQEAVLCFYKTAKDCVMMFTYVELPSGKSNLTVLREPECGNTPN
# Description: 4. Solid Phase Receptor Assay (SPRA) for αvβ5 Function
# Recombinant human vitronectin (R&D Systems, 2308-VN) at 0.25 μg/mL in TBS+ buffer (25 mM Tris pH 7.4, 137 mM NaCl, 2.7 mM KCl, 1 mM CaCl2, 1 mM MgCl2, 1 mM MnCl2) was added to wells (50 μL/well) of a 96-well half-well transparent microtiter plate (Greiner 675061) and incubated overnight at 4° C. Wells were washed 3 times with 150 μL TBS+ and 150 μL of blocking buffer (TBS+ with 1% bovine serum albumin, Sigma A7906) were added. The plate was incubated for 1 hr at 37° C. and then washed 3× with TBS+ buffer. Recombinant human integrin αvβ5 (R&D Systems, 2528-AV) was diluted to 0.1 μg/mL in TBS+/0.1% bovine serum albumin. Compounds were diluted 1:100 into the integrin solution and then 50 μL added to empty wells of the washed vitronectin-coated plate according to a standard template with each sample repeated in triplicate. After incubation for two hours at room temperature, the plate was washed 3× with 150 μL of TBS+ buffer. To each well, 50 μl of biotinylated anti-αv antibody (R&D Systems, BAF1219) at 0.5 μg/mL in TBS+/0.1% BSA at 0.5 μg/mL were added and the plate covered and incubated for 1 hr at room temperature. After washing the plate 3× with 150 μL of TBS+ buffer, 50 μL of streptavidin-conjugated horseradish peroxidase (R&D Systems DY998) diluted in TBS+ blocking buffer were added to the wells and the plate incubated for 20 min at room temperature. The plate was washed 3× with TBS+ buffer followed by 50 μL of TMB substrate (Sigma T4444) added to each well and the plate incubated for 20 min at room temperature. Plates were read by colorimetric detection at 650 nm wavelength using a Tecan Safire II plate reader. Concentration-response curves were constructed by non-linear regression (best fit) analysis, and IC50 values were calculated for each compound.
# [3] = molecular target: Recombinant human integrin αvβ8 (Homo sapiens (Human), UniProt P06756+P26012); assay: Solid Phase Receptor Assay (SPRA) for αvβ8 function; details: LAP-coated plate
# Recombinant human integrin αvβ8, sequence (P06756 31-992): as the sequence (P06756 31-992) above
# Recombinant human integrin αvβ8, sequence (P26012 43-684): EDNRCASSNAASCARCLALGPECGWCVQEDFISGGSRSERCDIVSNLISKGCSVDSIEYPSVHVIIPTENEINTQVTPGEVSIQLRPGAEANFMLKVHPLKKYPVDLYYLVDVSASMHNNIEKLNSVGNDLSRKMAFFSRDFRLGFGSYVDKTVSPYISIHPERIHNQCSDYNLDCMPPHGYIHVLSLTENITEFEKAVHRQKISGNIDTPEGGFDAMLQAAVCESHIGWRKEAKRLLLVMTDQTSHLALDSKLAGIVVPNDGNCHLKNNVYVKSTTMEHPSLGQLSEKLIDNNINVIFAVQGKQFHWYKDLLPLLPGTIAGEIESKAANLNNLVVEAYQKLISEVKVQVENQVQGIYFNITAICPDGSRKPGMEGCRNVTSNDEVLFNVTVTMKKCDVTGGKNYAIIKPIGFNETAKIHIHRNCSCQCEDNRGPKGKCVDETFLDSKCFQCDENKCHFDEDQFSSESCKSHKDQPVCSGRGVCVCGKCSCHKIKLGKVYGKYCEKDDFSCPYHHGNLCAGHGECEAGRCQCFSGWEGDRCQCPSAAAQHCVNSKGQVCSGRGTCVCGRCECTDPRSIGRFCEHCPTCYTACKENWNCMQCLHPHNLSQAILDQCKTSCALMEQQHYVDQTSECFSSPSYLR
# Description: 6. Solid Phase Receptor Assay (SPRA) for αvβ8 Function
# Recombinant human LAP protein (R&D Systems, Inc, 246-LP) diluted to 0.5 μg/mL in TBS+ buffer (25 mM Tris pH 7.4, 137 mM NaCl, 2.7 mM KCl, 1 mM CaCl2, 1 mM MgCl2, 1 mM MnCl2) was added to wells (50 μl/well) of a 96-well half-well transparent microtiter plate (Greiner 675061), and incubated overnight at 4° C. Wells were washed 3 times with 150 μL TBS+ and 150 μL of blocking buffer (TBS+ with 1% bovine serum albumin, Sigma A7906) were added. The plate was incubated for 1 hr at 37° C. and then washed 3× with TBS+. Recombinant human integrin αvβ8 (R&D Systems, 4135-AV) was diluted to 0.1 μg/mL in TBS+/0.1% bovine serum albumin. Compounds were diluted 1:100 into the integrin solution and 50 μL added to empty wells of the washed LAP-coated plate according to a standard template with each sample repeated in triplicate. After incubation for two hours at room temperature, the plate was washed 3× with 150 μL of TBS+. To each well, 50 μL of biotinylated anti-αv antibody (R&D Systems, BAF1219) at 1 μg/mL in TBS+/0.1% BSA were added and the plate was covered and incubated for 1 hr at room temperature. After washing the plate 3× with 150 μL of TBS+ buffer, 50 μL of streptavidin-conjugated horseradish peroxidase (R&D Systems, DY998) diluted in TBS+ blocking buffer were added to the wells and the plate incubated for 20 min at room temperature. The plate was washed 3× with TBS+ followed by 50 μL of TMB substrate (Sigma T4444) added to each well and the plate incubated for 20 min at room temperature. Plates were read by colorimetric detection at 650 nm wavelength using a Tecan Safire II plate reader. Concentration-response curves were constructed by non-linear regression (best fit) analysis, and IC50 values were calculated for each compound.
# Recombinant human integrin αvβ1, sequence (P06756 31-992): as the sequence (P06756 31-992) above
# Recombinant human integrin αvβ1, sequence (P05556 21-728): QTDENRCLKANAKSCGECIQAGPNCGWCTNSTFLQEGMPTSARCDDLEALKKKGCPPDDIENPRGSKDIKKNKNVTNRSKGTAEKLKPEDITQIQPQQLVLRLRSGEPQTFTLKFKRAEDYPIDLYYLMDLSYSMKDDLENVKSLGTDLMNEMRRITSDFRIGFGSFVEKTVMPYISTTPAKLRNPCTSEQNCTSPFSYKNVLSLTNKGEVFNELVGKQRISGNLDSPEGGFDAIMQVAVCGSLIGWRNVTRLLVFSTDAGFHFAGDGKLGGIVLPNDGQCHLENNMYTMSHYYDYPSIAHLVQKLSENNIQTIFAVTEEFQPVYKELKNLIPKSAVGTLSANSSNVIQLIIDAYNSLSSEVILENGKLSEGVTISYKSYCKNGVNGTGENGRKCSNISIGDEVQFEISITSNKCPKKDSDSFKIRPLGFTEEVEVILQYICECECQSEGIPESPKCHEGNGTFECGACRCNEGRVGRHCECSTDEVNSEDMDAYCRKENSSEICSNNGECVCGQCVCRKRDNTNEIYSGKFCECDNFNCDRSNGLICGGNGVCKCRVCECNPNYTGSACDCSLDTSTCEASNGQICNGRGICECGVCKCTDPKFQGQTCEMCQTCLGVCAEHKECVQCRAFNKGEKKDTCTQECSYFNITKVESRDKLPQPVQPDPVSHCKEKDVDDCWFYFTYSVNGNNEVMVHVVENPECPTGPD
SMILES,IC50 [1] [nM],IC50 [2] [nM],IC50 [3] [nM]
"O=C(O)C[C@H](NC(=O)CNC(=O)c1cc(O)cc(NC2=NCC(O)CN2)c1)c1cc(Cl)cc(C(F)(F)F)c1 (stereo partly drawn) [Example 5, (3S)-3-[3-chloro-5-(trifluoromethyl)phenyl)-3-(2-(3-hydroxy-5-((5-hydroxy-1,4,5,6-tetrahydropyrimidin-2-yl)amino)benzamido)acetamido]propanoic acid]",2,0.5,0.6
"O=C(O)C[C@H](NC(=O)CNC(=O)c1cc(O)cc(NC2=NCC(O)CN2)c1)c1cc(Cl)cc(Br)c1 (stereo partly drawn) [Example 6, (3S)-3-[3-bromo-5-chloro-phenyl)-3-(2-(3-hydroxy-5-((5-hydroxy-1,4,5,6-tetrahydropyrimidin-2-yl)amino)benzamido)acetamido]propanoic acid]",3,0.2,0.5
"O=C(O)C[C@H](NC(=O)CNC(=O)c1cncc(NC2=NCC(O)CN2)c1)c1cc(Cl)cc(Br)c1 (stereo partly drawn) [Example 8, (3S)-3-(3-bromo-5-chloro-phenyl)-3-[[2-[[5-[(5-hydroxy-1,4,5,6-tetrahydropyrimidin-2-yl)amino]pyridine-3-carbonyl]amino]acetyl]amino]propanoic acid]",1,0.1,0.4
"O=C(O)C[C@H](NC(=O)CNC(=O)c1cc(O)cc(NC2=NCC(O)CN2)c1)c1cc(C(F)(F)F)cc(C(F)(F)F)c1 (stereo partly drawn) [Example 10, (3S)-3-[3,5-bis(trifluoromethyl)phenyl)-3-(2-(3-hydroxy-5-((5-hydroxy-1,4,5,6-tetrahydropyrimidin-2-yl)amino)benzamido)acetamido]propanoic acid]",2 ± 1,1,0.3 ± 0.1
"Cc1cc(Cl)cc([C@H](CC(=O)O)NC(=O)CNC(=O)c2cc(O)cc(NC3=NCC(O)CN3)c2)c1 (stereo partly drawn) [Example 12, (3S)-3-[3-chloro-5-methyl-phenyl)-3-(2-(3-hydroxy-5-((5-hydroxy-1,4,5,6-tetrahydropyrimidin-2-yl)amino)benzamido)acetamido)propanoic acid]",4 ± 2,0.4,0.7 ± 0.1
"O=C(O)C[C@H](NC(=O)CNC(=O)c1cc(O)cc(NC2=NCC(O)CN2)c1)c1cc(F)cc(Br)c1 (stereo partly drawn) [Example 13, (3S)-3-[3-bromo-5-fluoro-phenyl)-3-(2-(3-hydroxy-5-((5-hydroxy-1,4,5,6-tetrahydropyrimidin-2-yl)amino)benzamido)acetamido)propanoic acid]",1,0.1,1 ± 0.3
"O=C(O)C[C@H](NC(=O)CNC(=O)c1cc(O)cc(NC2=NCC(O)CN2)c1)c1cc(Cl)cc(Cl)c1 (stereo partly drawn) [Example 15, (3S)-3-[3,5-dichloro-phenyl)-3-(2-(3-hydroxy-5-((5-hydroxy-1,4,5,6-tetrahydropyrimidin-2-yl)amino)benzamido)acetamido)propanoic acid]",4 ± 1,0.3,1.1 ± 0.3

# The remaining compounds from weak to strong by IC50 [1], led by results:
IC50 [1] [nM],IC50 [2] [nM],IC50 [3] [nM],SMILES
2 ± 2,0.2,0.3 ± 0.1,"O=C(O)C[C@H](NC(=O)CNC(=O)c1cc(O)cc(NC2=NCC(O)CN2)c1)c1cc(Br)cc(Br)c1 (stereo partly drawn) [Example 1, (3S)-3-(3,5-dibromophenyl)-3-(2-(3-hydroxy-5-((5-hydroxy-1,4,5,6-tetrahydropyrimidin-2-yl)amino)benzamido)acetamido)propanoic acid]"
2,0.4,0.5,"O=C(O)C[C@H](NC(=O)CNC(=O)c1cc(O)cc(NC2=NCC(O)CN2)c1)c1cc(Br)cc(C(F)(F)F)c1 (stereo partly drawn) [Example 2, (3S)-3-(3-bromo-5-(trifluoromethyl)phenyl)-3-(2-(3-hydroxy-5-((5-hydroxy-1,4,5,6-tetrahydropyrimidin-2-yl)amino)benzamido)acetamido)propanoic acid]"
2,0.2,0.3,"O=C(O)C[C@H](NC(=O)CNC(=O)c1cc(O)cc(NC2=NCC(O)CN2)c1)c1cc(Cl)cc(C(F)F)c1 (stereo partly drawn) [Example 3, (3S)-3-[3-chloro-5-(difluoromethyl)phenyl)-3-(2-(3-hydroxy-5-((5-hydroxy-1,4,5,6-tetrahydropyrimidin-2-yl)amino)benzamido)acetamido]propanoic acid]"
2,0.4,0.4,"O=C(O)C[C@H](NC(=O)CNC(=O)c1cc(O)cc(NC2=NCC(O)CN2)c1)c1cc(Br)cc(C(F)F)c1 (stereo partly drawn) [Example 4, (3S)-3-[3-bromo-5-(difluoromethyl)phenyl)-3-(2-(3-hydroxy-5-((5-hydroxy-1,4,5,6-tetrahydropyrimidin-2-yl)amino)benzamido)acetamido]propanoic acid]"
1,0.2,0.4,O=C(O)C[C@H](NC(=O)CNC(=O)c1cncc(NC2=NCC(O)CN2)c1)c1cc(Cl)cc(C(F)(F)F)c1 (stereo partly drawn) [Example 7]
1,0.3,0.3,"O=C(O)C[C@H](NC(=O)CNC(=O)c1cncc(NC2=NCC(O)CN2)c1)c1cc(Br)cc(C(F)(F)F)c1 (stereo partly drawn) [Example 9, (3S)-3-[3-bromo-5-(trifluoromethyl)phenyl]-3-[[2-[[5-[(5-hydroxy-1,4,5,6-tetrahydropyrimidin-2-yl)amino]pyridine-3-carbonyl]amino]acetyl]amino]propanoic acid]"
0.7,0.1,0.2,"O=C(O)C[C@H](NC(=O)CNC(=O)c1cncc(NC2=NCC(O)CN2)c1)c1cc(Br)cc(Br)c1 (stereo partly drawn) [Example 14, (3S)-3-(3,5-dibromophenyl)-3-[[2-[[5-[(5-hydroxy-1,4,5,6-tetrahydropyrimidin-2-yl)amino]pyridine-3-carbonyl]amino]acetyl]amino]propanoic acid]"
0.4,0.3,0.6,"Cc1cc(Br)cc([C@H](CC(=O)O)NC(=O)CNC(=O)c2cc(O)cc(NC3=NCC(O)CN3)c2)c1 (stereo partly drawn) [Example 11, (3S)-3-[3-bromo-5-methyl-phenyl)-3-(2-(3-hydroxy-5-((5-hydroxy-1,4,5,6-tetrahydropyrimidin-2-yl)amino)benzamido)acetamido)propanoic acid]"
